In one data set the target is Cdk3 (Homo sapiens, UniProt Q00526). The data set can be described thus: Cdk kinase profiling assay (Ambit Biosciences). Format: binding. As to the method: (§1) Since flavonoids have been reported to inhibit multiple Cdks, we investigated the inhibitory effect of flavonoid apigenin on various Cdks. Apigenin inhibited multiple Cdks, including Cdk2, 4, 5, 7, 8, 9 and 11 (Table 1). […] GST was expressed and purified by using pGEX-4T-1 in Escherichia coli BL21 and was used as the negative control. The reaction mixture was incubated at 30°C for 30 min before being electrophoresed by SDS-PAGE. The gel was stained by using SimplyBlue SafeStain (Invitrogen), desiccated by the Labconco gel dryer (Labconco, Kansas City, MO), and exposed overnight to the Storage Phosphor Screen (GE Healthcare). Phosphoimages were obtained by using the Storm scanner (GE Healthcare). In vitro Cdks kinase profiling assays were performed by Ambit Biosciences (San Diego, CA) as previously described.

Another data set has as its target Cdk7 (Homo sapiens, UniProt P50613). The data set can be described thus: Cdk kinase profiling assay (Ambit Biosciences). Type of data set: binding. As to the method: as §1
The target of the next data set is Cdk2 (Homo sapiens, UniProt P24941). The data set can be described thus: Cdk kinase profiling assay (Ambit Biosciences). Type of data set: binding. As to the method:
as §1

Another data set addresses Cdk4 (Homo sapiens, UniProt P11802). The data set can be described thus: Cdk kinase profiling assay (Ambit Biosciences). Format: binding. As to the method: as §1
In the next data set the target is Cdk5 (Homo sapiens, UniProt Q00535). The data set can be described thus: Cdk kinase profiling assay (Ambit Biosciences). Type of data set: binding. As to the method: as §1
Another data set has as its target Cdk8 (Homo sapiens, UniProt P49336). The data set can be described thus: Cdk kinase profiling assay (Ambit Biosciences). Format: binding. As to the method:
as §1

In the next data set the target is Cdk9 (Homo sapiens, UniProt P50750). Briefly: Cdk kinase profiling assay (Ambit Biosciences). Format: binding. The protocol: as §1
For another data set, the target named is Cdk11 (Homo sapiens, UniProt Q9BWU1). Briefly: Cdk kinase profiling assay (Ambit Biosciences). Type of data set: binding. The protocol: as §1
The test system of data set [1] is PXR-mediated CYP3A4 promoter activity in HepG2 cells stably transfected with PXR and CYP3A4-luc. Briefly: PXR transactivation assay (CYP3A4-luc luciferase reporter). The following applies: 24 h; for PXR activation as % of the activity from 2 μM of rifampicin: compound below 10 μM; for Activation of PXR-mediated CYP3A4 promoter (result in words): screen hit in HepG2 PXR/CYP3A4-luc cells. The protocol: HepG2 cells (2 × 10^4/well) stably transfected with PXR and CYP3A4-luc were seeded in 384-well plates and treated with indicated compounds for 24 h before the luciferase assay. […] Compounds were tested in quadruplicate. The bars denote the standard deviation.
Compounds were added to 384-well plates seeded with cells in a phenol red-free medium containing 5% charcoal/dextran-treated FBS and incubated for 24 h at 37°C before conducting the luciferase assay. The final concentration of DMSO in each well was maintained at 0.1%. DMSO and 2 μM of rifampicin were used as the negative and positive control, respectively. Luciferase activities were detected by using EnVision plate reader (PerkinElmer Life Sciences), as previously reported.

Data set [2] concerns Cdk5-mediated inhibition of PXR-mediated CYP3A4 promoter activity in HepG2. The data set can be described thus: Cdk5-mediated inhibition of rifampicin-induced CYP3A4 promoter activity (transient co-transfection, Dual-glo luciferase). Format: cell-based, human. As to conditions: p < 0.001.
Method: Next, we determined the functional correlation between the activities of Cdk5 and PXR. […] A total of 20 μg of combined plasmids was used to transfect 5 × 10^6 cells seeded in a T75 flask 16 h before transfection. Transfected cells were seeded into white 96-well plates (at 10,000 cells/well) 24 h later, and treated with DMSO or compounds as indicated for 24 h before Dual-glo luciferase assay. CYP3A4 promoter activity was normalized by using activity of the CMV-renilla, and expressed as fold induction over control (DMSO; without Cdk5 transfection). […] The significance of the difference between datasets was determined by using the Student's t test.
Data set [3] concerns the target T1, GST-hPXR ligand-binding domain (Homo sapiens, UniProt O75469).
T1 sequence (O75469 146-433 limits assumed): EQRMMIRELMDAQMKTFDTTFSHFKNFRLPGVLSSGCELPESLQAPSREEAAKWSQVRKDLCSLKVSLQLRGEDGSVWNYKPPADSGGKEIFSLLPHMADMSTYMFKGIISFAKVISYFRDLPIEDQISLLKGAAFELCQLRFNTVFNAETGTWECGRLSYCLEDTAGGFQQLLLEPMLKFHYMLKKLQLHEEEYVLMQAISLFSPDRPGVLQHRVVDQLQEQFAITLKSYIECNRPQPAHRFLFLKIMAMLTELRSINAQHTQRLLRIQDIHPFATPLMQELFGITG
Method: The time-resolved fluorescence resonance transfer (TR-FRET) PXR competitive binding assay was performed as described previously [9]. Briefly, the assays were performed in a volume of 20 μl in 384-well solid black plates with 5 nM GST-hPXR ligand-binding domain, 40 nM fluorescent-labeled hPXR agonist (Fluomore PXR Green), 5 nM terbium-labeled anti-GST antibody, and test compound at different concentrations. […] Curves were generated by using GraphPad Prism 4.0 (GraphPad Software, La Jolla, CA).

Structures are written as SMILES.

Cdk7, sequence (P50613 whole entry): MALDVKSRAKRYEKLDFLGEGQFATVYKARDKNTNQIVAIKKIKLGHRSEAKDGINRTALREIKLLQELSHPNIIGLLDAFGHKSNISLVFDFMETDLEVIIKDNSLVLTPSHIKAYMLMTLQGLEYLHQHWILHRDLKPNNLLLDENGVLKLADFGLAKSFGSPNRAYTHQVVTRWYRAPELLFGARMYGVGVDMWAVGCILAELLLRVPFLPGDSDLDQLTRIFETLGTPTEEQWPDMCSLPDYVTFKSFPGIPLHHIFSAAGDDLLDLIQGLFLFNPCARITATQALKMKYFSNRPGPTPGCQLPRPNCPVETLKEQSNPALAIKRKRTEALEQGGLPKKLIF
Cdk9, sequence (P50750 whole entry): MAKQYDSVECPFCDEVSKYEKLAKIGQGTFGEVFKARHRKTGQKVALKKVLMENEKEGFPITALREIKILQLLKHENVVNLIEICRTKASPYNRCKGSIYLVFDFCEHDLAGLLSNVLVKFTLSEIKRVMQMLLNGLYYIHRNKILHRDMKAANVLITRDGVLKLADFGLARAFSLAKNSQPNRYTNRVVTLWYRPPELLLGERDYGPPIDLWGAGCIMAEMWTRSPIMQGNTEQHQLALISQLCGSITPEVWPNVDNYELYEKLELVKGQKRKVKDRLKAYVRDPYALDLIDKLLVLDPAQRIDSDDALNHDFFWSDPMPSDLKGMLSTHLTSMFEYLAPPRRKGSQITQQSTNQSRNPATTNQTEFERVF
Cdk8, sequence (P49336 whole entry): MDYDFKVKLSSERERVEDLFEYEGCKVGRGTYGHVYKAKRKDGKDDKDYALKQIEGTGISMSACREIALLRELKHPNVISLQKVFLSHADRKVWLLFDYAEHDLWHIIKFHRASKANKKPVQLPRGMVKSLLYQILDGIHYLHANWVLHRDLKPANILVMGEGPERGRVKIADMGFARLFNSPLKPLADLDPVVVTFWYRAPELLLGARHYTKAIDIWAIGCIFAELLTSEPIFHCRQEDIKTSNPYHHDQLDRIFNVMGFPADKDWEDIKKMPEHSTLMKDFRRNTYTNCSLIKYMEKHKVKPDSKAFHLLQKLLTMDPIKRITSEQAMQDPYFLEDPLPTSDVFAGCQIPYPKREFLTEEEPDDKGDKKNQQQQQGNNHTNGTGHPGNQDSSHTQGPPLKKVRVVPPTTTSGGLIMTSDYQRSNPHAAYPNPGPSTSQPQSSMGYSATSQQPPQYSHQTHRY
Cdk3, sequence (Q00526 whole entry): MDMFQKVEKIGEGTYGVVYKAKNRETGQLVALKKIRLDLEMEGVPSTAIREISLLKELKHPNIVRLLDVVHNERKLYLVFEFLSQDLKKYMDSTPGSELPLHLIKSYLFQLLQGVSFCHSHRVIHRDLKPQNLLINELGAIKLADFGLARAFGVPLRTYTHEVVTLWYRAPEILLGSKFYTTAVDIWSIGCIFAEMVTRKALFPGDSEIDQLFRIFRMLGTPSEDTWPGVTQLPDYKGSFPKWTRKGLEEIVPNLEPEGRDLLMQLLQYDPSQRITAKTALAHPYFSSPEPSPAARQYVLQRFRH
Cdk5, sequence (Q00535 whole entry): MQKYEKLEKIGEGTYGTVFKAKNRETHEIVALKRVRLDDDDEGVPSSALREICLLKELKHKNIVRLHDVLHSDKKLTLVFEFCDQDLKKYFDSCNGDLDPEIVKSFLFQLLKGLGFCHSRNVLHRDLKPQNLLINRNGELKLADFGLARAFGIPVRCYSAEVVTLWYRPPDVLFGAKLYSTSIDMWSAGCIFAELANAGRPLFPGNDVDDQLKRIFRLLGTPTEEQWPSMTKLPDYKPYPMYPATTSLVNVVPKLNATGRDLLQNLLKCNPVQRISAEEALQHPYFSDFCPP
Cdk4, sequence (P11802 whole entry): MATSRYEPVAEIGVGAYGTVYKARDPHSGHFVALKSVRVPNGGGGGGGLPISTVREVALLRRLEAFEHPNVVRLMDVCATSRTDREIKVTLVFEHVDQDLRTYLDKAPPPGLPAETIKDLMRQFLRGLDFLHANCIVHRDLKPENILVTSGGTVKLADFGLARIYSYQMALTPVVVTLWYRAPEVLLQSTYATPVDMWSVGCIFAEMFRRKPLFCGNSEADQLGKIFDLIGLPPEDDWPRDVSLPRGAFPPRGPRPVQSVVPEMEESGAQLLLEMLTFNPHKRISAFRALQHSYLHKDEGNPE
Cdk11, sequence (Q9BWU1 whole entry): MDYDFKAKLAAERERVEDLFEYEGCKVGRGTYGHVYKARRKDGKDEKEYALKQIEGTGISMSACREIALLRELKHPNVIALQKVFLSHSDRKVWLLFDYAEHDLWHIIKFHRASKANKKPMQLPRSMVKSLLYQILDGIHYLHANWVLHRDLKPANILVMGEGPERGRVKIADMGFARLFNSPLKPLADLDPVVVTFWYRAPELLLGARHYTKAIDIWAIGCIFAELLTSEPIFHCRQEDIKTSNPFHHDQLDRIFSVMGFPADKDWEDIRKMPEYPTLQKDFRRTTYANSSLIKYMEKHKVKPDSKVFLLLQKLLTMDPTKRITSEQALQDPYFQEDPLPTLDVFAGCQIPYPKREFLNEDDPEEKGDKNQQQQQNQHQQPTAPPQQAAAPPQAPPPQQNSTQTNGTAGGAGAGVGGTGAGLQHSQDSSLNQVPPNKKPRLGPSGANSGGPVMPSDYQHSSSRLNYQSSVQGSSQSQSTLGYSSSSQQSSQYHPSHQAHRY

On to `O=c1cc(-c2ccc(O)cc2)oc2cc(O)cc(O)c12` [apigenin], for which the Kd was more than 30 µM on Cdk3; 1.7 µM at Cdk7; 9.8 µM at Cdk2; 7 µM at Cdk4; 3.9 µM at Cdk5; 5.8 µM on Cdk8. Moreover, the equilibrium dissociation constant (Kd) stood at 2 µM on Cdk9 and 3 µM at Cdk11. Moreover, the “PXR activation as % of the activity from 2 μM of rifampicin” value in [1] is given as “more than 50%”. The “Activation of PXR-mediated CYP3A4 promoter (result in words)” value (“Activation … (result in words)” for short) in data set [1] was “potent activators”.

As to `COc1ccc(-c2coc3cc(O)cc(O)c3c2=O)cc1` [biochanin A], in [1], the “Activation … (result in words)” value is on record as “potent activators”.

Regarding `CCCC[C@@H](C=O)NC(=O)[C@H](CC(C)C)NC(=O)OCc1ccccc1` [calpeptin, reference compound], in [1] (HepG2 PXR/CYP3A4-luc), the “Concentration as potent as 2 μM of rifampicin in inducing PXR activity” value came to 4.4 µM. The “Effect on inhibitory effect of Cdk5 on CYP3A4 promoter activity (result in words)” value in data set [2] was “decreased the inhibitory effect of Cdk5”.

Consider `O=c1cc(-c2ccccc2)oc2cc(O)cc(O)c12` [chrysin], for which the “Binding to PXR (result in words)” value in data set [3] is “did not bind”. Besides, the “Activation … (result in words)” value in data set [1] is listed as “potent activators”.

For the compound `O=c1c(-c2ccc(O)cc2)coc2cc(O)ccc12` [daidzein], the “Activation … (result in words)” value in [1] is “potent activators”.

Regarding `O=c1c(-c2ccc(O)cc2)coc2cc(O)cc(O)c12` [genistein], the “Activation … (result in words)” value in [1] is recorded as “potent activators”.

Consider `O=c1cc(-c2ccc(O)c(O)c2)oc2cc(O)cc(O)c12` [luteolin], for which, in [1] (compound at 40 μM, versus 2 μM rifampicin), the “PXR activation, times more effective than 2 μM rifampicin” value is 7 times. Also, in [1], the “PXR activation as % of the activity from 2 μM of rifampicin” value is listed as “more than 50%” and the “Activation … (result in words)” value is reported as “potent activators”.

For the compound `COc1cc(O)c2c(=O)c(-c3ccc(O)cc3)coc2c1` [prunetin], in [1], the “Activation … (result in words)” value is on record as “potent activators”.

These data come from article PMC2901217, “Flavonoids activate pregnane × receptor-mediated CYP3A4 gene expression by inhibiting cyclin-dependent kinases in HepG2 liver carcinoma cells” (BMC Biochemistry, 2010).
